From patent publication US20210260010A1, “COMPOSITIONS AND METHODS FOR THE REDUCTION OR TREATMENT OF INFLAMMATION” (AXCELLA HEALTH INC., priority 2018, published 2021)

Test: FATZO mouse NASH model on western diet plus fructose (Example 8): body and liver weight, liver histology, NAS, fibrosis
Assay type: in vivo, FATZO mice
Excerpt: NASH was induced in 60 male FATZO mice by a western diet (Research Diet #D12079B; fat 40% kcal, protein 17% kcal, carbohydrate 43% kcal) supplemented with 5% fructose in the drinking water (WDF) during a 16 week induction phase. Diets and water were available ad libitum. Littermate control male FATZO mice fed with a control diet (n=6, Purina #5008; fat 17% kcal, protein 27% kcal, carbohydrate 56% kcal) and sterile water were set up for control purpose. Mice were housed in plastic cages with microisolator. Sterilized bedding was replaced once a week. Mice were housed three per cage and maintained on a twelve hour light cycle throughout study duration. Room temperature was monitored daily and maintained at 22-25° C. Body weight was recorded every week during the induction phase.
Following 16 weeks diet induction, 6 mice remained on control diet (group 1, Control) while 60 induced mice were randomized on body weight and plasma glucose (fed) for assignment to the following treatments. FATZO mice were administered with test articles starting at 16 weeks post western diet NASH induction for 4 weeks. Test articles were administered by oral gavage. Animals were euthanized at 20 weeks post western diet NASH induction, and tissues were harvested for analysis.
[…], […]+G, LRQNAC, and OCA (Advanced ChemBlocks, Inc.), incipient, and water for irrigation were provided by Axcella Health, Inc. 0.5% Methylcellulosewas provided by CrownBio, Inc. Dosing solutions were prepared according to Appendix 1. […] Obeticholic acid (OCA) was suspended in 0.5% methylcellulose in water for irrigation. All test articles were stored refrigerated. TA compounds were provided in frozen powder form by the sponsor. Dosing was continued for 4 weeks.
[…], […]+G, LRQNAC, OCA and Vehicle were administered by oral gavage at a volume of 10 mL/kg throughout the study. Dosages were calculated by daily body weight. […], […]+G, LRQNAC, and Vehicle were administered twice per day (BID), while OCA was administered once a day (QD) in the morning. Mice receiving OCA once per day (QD), and one vehicle QD. Doses were administered by oral gavage at 0700 and 1800 by oral gavage for 4 weeks.
The viability, clinical signs and behavior were monitored daily. Body weight was recorded daily during the dosing period. Blood samples were collected weekly in the AM (0700) via tail clip for glucose measurement (StatStrip glucometer).
Animals were anesthetized with CO2 inhalation and exsanguinated via cardiac puncture for euthanasia. Terminal blood samples (K2EDTA) were obtained by cardiac puncture in anesthetized animals at termination. Samples were provided frozen to Axcella Health. Organ weights (total liver, gonadal fat pads) were recorded. Pancreas, and small intestine and gonadal fat pads were fixed in 10% Buffered Formalin and prepared as directed in protocol. A section of small intestine, gonadal fat pad and liver were also snap frozen in liquid nitrogen and shipped to the sponsor.
The liver tissues were fixed in Bouin's solution at 4° C. for 24 hours followed by baths of standard concentrations of alcohol then xylene to prepare the tissues for paraffin embedding. After being embedded in paraffin and cooled, five-micron sections were cut and stained for routine H&E and Picric Sirius Red. A section of both right and left lobes of the livers were frozen in OCT for analysis of lipid content with Oil-Red-) staining. The Aperio whole slide digital imaging system (Scan Scope CS, Vista, Calif.) was used for imaging. All slides were imaged at 20×. The scan time ranged from 1.5 minutes to a maximum time of 2.25 minutes. The whole images were housed and stored in their Spectrum software system and images were shot from the whole slides.
The livers were evaluated using the NASH liver criteria for scoring. In this mouse study, one cross section of liver for each case was analyzed with the NASH score system. […]

[1] = FATZO mice on WDF, 4 weeks, LIVRQNAC+G 3885 mg/kg, LRQNAC 2469 mg/kg BID, OCA 30 mg/kg/day QD
[2] = score 0-3, WDF fed FATZO mice, oral gavage 4 weeks, LIVRQNAC+G and LRQNAC leucine-matched BID, OCA QD

Compound: CC[C@H]1[C@@H](O)[C@@H]2[C@H](CC[C@]3(C)[C@@H]([C@H](C)CCC(=O)O)CC[C@@H]23)[C@@]2(C)CC[C@@H](O)C[C@@H]12 [OCA, 6α-ethyl-chenodeoxycholic acid]
- NAFLD activity score (NAS) (FATZO mice on WDF, 4 weeks, vs vehicle, LIVRQNAC 1500 or 3000 mg/kg, LIVRQNAC+G 3885 mg/kg, LRQNAC 2469 mg/kg, OCA 30 mg/kg/day): no significant effect
- Body weight change compared to baseline [1]: −3.9±1.5%
- Liver weight (% body weight) [1]: 6.81±0.2 % body weight
- Liver Pathology NAS (WDF fed FATZO mice, oral gavage 4 weeks, LIVRQNAC+G and LRQNAC leucine-matched BID, OCA QD): 3.72 ± 0.147
- Liver Pathology Ballooning (score 0-2, WDF fed FATZO mice, oral gavage 4 weeks, LIVRQNAC+G and LRQNAC leucine-matched BID, OCA QD): 0.94 ± 0.056
- Liver Pathology Inflammation [2]: 1.0 ± 0.0
- Liver Pathology Steatosis [2]: 1.78 ± 0.147
